The MIC is the lowest concentration that inhibits growth of the organism.

≈ marks a conversion by molar mass, not a printed value. Entries after “also recorded” stand apart in the source; their conditions may differ. Read-outs that look alike come from different tables or passages of the source.

What all share (type): cell-based, Staphylococcus aureus
The test system of assay [1] is S. aureus strain ATCC 29213, log-phase. Nature of the assay: Viability (cfu/ml) of log-phase cultures exposed to drugs, plated on non-selective MHA. To be noted: for decrease in cfu/ml: drug alone: Rif 0.1 μg/ml (initial drop), Van 10 μg/ml.
The subject of assay [2] is S. aureus 29213, stationary-phase. Nature of the assay: Rif-resistant cfu/ml in drug-treated stationary-phase cultures. To be noted: Example 3, stationary-phase, Van or Rfz alone; Van 15 μg/ml plus Rfz 0.1 μg/ml. The protocol:
The emergence of Rif/Rfz-resistant cells in cultures in these experiments was monitored as previously described; the results are shown in FIG. 6.
(§1) For stationary phase studies, cultures were grown to an optical density of 2.2 to 2.4 at 600 nm, which represents approximately 5×10^9 cfu/ml; there would exist approximately 50 resistant mutants per nil in such a stationary phase culture. Drugs were added to the cultures to start the experiment, and then aliquots were removed at various time points, diluted in MHB if appropriate, and applied to 100 mm MHA and MHA plates containing Rif at 1 μg/ml. These plates were incubated at 35° C. for 18-24 hours, and then colonies manually counted to determine the number of cfu per nil of culture for the specific time-point/treatment. […] The Rif-containing plates were used to determine the number of Rfz-resistant bacteria present in the cultures for the specific time-point/treatment. Untreated control cultures were included in each experiment.

Assay [3] concerns S. aureus strain ATCC 29213, log-phase. The protocol: In order to characterize the population of the cultures shown in FIG. 1, aliquots at the various time points/treatments were tested for the presence of Rif-resistant mutants.
Cultures were also examined as described above for the number of cfu/ml present that were resistant to Rif (FIG. 4).
(§2) For log-phase studies, cells were grown to an optical density of 0.5 at 600 nm, which represents a culture density of 5×10^8 colony forming units (cfu)/ml for S. aureus and deviates from densities typically used in time-kill type assays (1×10^7 cfu/ml). We chose to start at a higher density because this density is more likely to reflect in vivo bioburden than lower starting densities. In addition, this starting density is critical for monitoring the emergence of ansamycin-resistant mutants because it insures that there is a starting resident population of such resistant mutants at the start of the experiment. The 10^−8 frequency of mutants to Rfz leads to a theoretical number of five mutants per ml of culture at this cell density.
as §1

In assay [4] the test system is S. aureus 29213, stationary-phase. Nature of the assay: Viability (cfu/ml) of stationary-phase cultures exposed to drugs. To be noted: for killing effect against stationary phase cultures (summary, words): stationary phase (non-multiplying), alone or in combination; for log killing of stationary-phase cultures: summary, over 48 hours, single drugs or combination. The protocol: Cultures of S. aureus 29213 were grown to stationary-phase (an OD of 2.2 to 2.4 at 600 nm), then treated with Van and Rfz, either alone or in combination (FIG. 5; concentrations listed are in μg/ml). Rfz was used at 0.1 μg/ml, while Van was used at 15 μg/ml and 30 μg/ml, the latter concentration based on the fact that the starting culture was at a much higher density than was the log-phase cultures used in the experiments described above. It was assumed that more Van might be required to give a prolonged killing effect. In addition, one culture was treated with 15 μg/ml Van at the start of the experiment and then again 24 hours later. At 0, 24 and 48 hours, the number of viable cells was determined by plating on non-selective medium as described above.
The bacterial strain used in this study was “wild-type” S. aureus strain ATCC 29213. The strain was grown in Mueller Hinton II Broth (MHB; cationadjusted; VWR) and on Mueller Hinton Agar (MHA; VWR) plates that were made according to the manufacturer's instructions. Van (Calbiochem) was resuspended in sterile water (Fisher) at 10 mg/ml, while Rif (Calbiochem) and Rfz (ActivBiotics) were resuspended in 100% DMSO (J. T. Baker) at 1 mg/ml. All drugs were stored at −80° C. in single-use aliquots.
S. aureus strain ATCC 29213 was grown on an MHA plate at 35° C. for 18 hours. Colonies (3-5) were used to inoculate 50-100 ml of cation-adjusted MHB in a 500 ml Ehrlenmeyer flask and grown at 37° C. in a water bath shaker at 240 rpm.
as §1

For assay [5], the system named is S. aureus. The experiment in a line: Frequency of resistant mutants. To be noted: resistance to Rfz. The protocol: as §2
Assay [6] deals with S. aureus 29213. Nature of the assay: MIC testing according to NCCLS standard. To be noted: S. aureus 29213, NCCLS standard MIC testing.

Take “3′-hydroxy-5′-(4-isobutyl-1-piperazinyl) benzoxazinorifamycin [Rfz]”: the “drop in cfu/ml (logs killed)” value in assay [1] (Example 1, log-phase, 0.1 μg/ml alone, in 4 hours) is reported as “approximately 3.5 logs”. In assay [1] (Example 2, log-phase, Rfz 0.1 μg/ml (6.5× MIC) alone, within 6 hours), the “reduction of cfu/ml of the culture (cidality)” value is “approximately 3 logs”. In addition, in assay [1] (Example 2, log-phase, Rfz alone 0.1 or 0.025 μg/ml, over 48 hours), the “cfu/ml level after regrowth” value is reported as “approximately 10×10^8 cfu/ml”. Moreover, the “reduction of cfu/ml at the lower concentration compared to the higher” value in assay [1] (log-phase, Rfz 0.025 μg/ml (1.6× MIC) vs 0.1 μg/ml (6.5× MIC)) was “just as effective; also recorded: as effective as 6.5× the MIC levels”. For the same compound, the “emergence of Rif/Rfz-resistant colonies” value in assay [2] is on record as “Resistant colonies did not appear”. For the same compound, the Rif-resistant cfu in assay [3] (Example 1, log-phase, 0.1 μg/ml alone, in 24 hours) is reported as 8 logs. Moreover, in assay [3] (log-phase, Rfz single agent or co-treatment with Van), the “appearance of Rif-resistant cfu in log-phase cultures (summary, words)” value is listed as “dramatic increase in Rif-resistant cfu/ml within 10 hours”. Further, the decrease of cfu result in assay [4] (Example 3, stationary-phase, Rfz 0.1 μg/ml alone) is recorded as “about 1 log”. Further, in assay [4], the “killing effect against stationary phase cultures (summary, words)” value is on record as “little or no killing effect” and the “log killing of stationary-phase cultures” value was “approximately 1 log”. In addition, in assay [5], the frequency of mutants was 10^−8. The compound also came in with a minimum inhibitory concentration (MIC) in assay [6] of 0.015 µg/mL.

As for `CO[C@H]1/C=C/O[C@@]2(C)Oc3c(C)c(O)c4c(O)c(c(/C=N/N5CCN(C)CC5)c(O)c4c3C2=O)NC(=O)/C(C)=C\C=C\[C@H](C)[C@H](O)[C@@H](C)[C@@H](O)[C@@H](C)[C@H](OC(C)=O)[C@@H]1C` [Rif, rifampicin, reference compound], in assay [1] (Example 1, log-phase), the decrease in cfu/ml was approximately 2.5 log. The same compound came in with a Rif-resistant cfu in assay [3] of 8 logs. For the same compound, the MIC in assay [6] (Staphylococcus aureus, read-out: MIC) came to 0.015 µg/mL (≈ 0.0182 µM).

`CN[C@H](CC(C)C)C(=O)N[C@H]1C(=O)N[C@@H](CC(N)=O)C(=O)N[C@H]2C(=O)N[C@H]3C(=O)N[C@H](C(=O)N[C@H](C(=O)O)c4cc(O)cc(O)c4-c4cc3ccc4O)[C@H](O)c3ccc(c(Cl)c3)Oc3cc2cc(c3O[C@@H]2O[C@H](CO)[C@@H](O)[C@H](O)[C@H]2O[C@H]2C[C@](C)(N)[C@H](O)[C@H](C)O2)Oc2ccc(cc2Cl)[C@H]1O` [Van, vancomycin, reference compound] had a decrease in cfu/ml in assay [1] (Example 1, log-phase) of 0.5 log. In assay [1] (log-phase dense cultures, Van alone, after 48 hours of treatment), this compound gave a significant killing of 3 logs. Also, the “killing effect at increased concentration” value in assay [1] (log-phase, vancomycin alone 15 μg/ml) was “sufficient for sustained killing”. In addition, the “emergence of Rif/Rfz-resistant colonies” value in assay [2] is on record as “Resistant colonies did not appear”. In addition, in assay [3] (Example 1, log-phase, Van 10 μg/ml alone or with Rif/Rfz 0.1 μg/ml), the “emergence of Rif-resistant cells” value is “little or no increase in the number of Rif-resistant cells”. In addition, in assay [4] (Example 3, stationary-phase, Van alone 15 or 30 μg/ml), the “viability of the cultures during treatment” value is listed as “did not decrease significantly”. In assay [4], the “killing effect against stationary phase cultures (summary, words)” value is given as “little or no killing effect” and the “log killing of stationary-phase cultures” value was “approximately 1 log”.

For the origin of these results see patent publication US20090149453A1, “METHODS AND COMPOSITIONS FOR TREATING BACTERIAL INFECTIONS AND DISEASES ASSOCIATED THEREWITH” (ACTIVBIOTICS PHARMA LLC, priority 2002, published 2009).
